Measurements published in US6056941A, “Kit for the preparation of technetium TC 99m teboroxime myocardial perfusion agent” (priority 1999, dated 2000).

Experiment: Clearance following intravenous administration in normal subjects (heart and liver)
Format: in vivo, human
Excerpt: Table II approximates the effective clearance of Technetium Tc-99 m Teboroxime from the heart and liver.

C[B-](ON=C1CCCCC1=N[O-])(ON=C1CCCCC1=NO)ON=C1CCCCC1=NO.[99Tc+3].[Cl-] [Technetium Tc-99 m Teboroxime, ^99m Tc (chlorine) (1,2-cyclohexanedione dioxime)3 methyl boron]
clearance from the circulation: rapidly cleared from the circulation
time of peak heart uptake (heart): ≤ 2 min
effective clearance, Heart (heart, 5 min): 2.3%
effective clearance, Heart (heart, 10 min): 1.7%
effective clearance, Heart (heart, 15 min): 1.5%
effective clearance, Heart (heart, 20 min): 1.3%
effective clearance, Heart (heart, 1 hr): 1.1%
effective clearance, Heart (heart, 2 hr): 0.8%
effective clearance, Heart (heart, 4 hr): 0.6%
effective clearance, Liver (5 min): 23%
effective clearance, Liver (10 min): 33%
effective clearance, Liver (15 min): 32%
effective clearance, Liver (20 min): 27%
effective clearance, Liver (1 hr): 24%
effective clearance, Liver (2 hr): 18%
effective clearance, Liver (4 hr): 17%
